Laboratory results taken from patent US20260308184A1, “SUBSTITUTED PYRIMIDINEDIONE COMPOUNDS, COMPOSITIONS, AND USES THEREOF” (LAKEWOOD AMEDEX, INC., priority 2023, published 2026).
≈ marks a conversion by molar mass, not a printed value.

Columns and labels:
Experiment in all cases: Minimum Inhibitory Concentration, broth microdilution
Format in all cases: cell-based
Conditions in all cases: pH 4-5, Mueller Hinton Broth, 18 to 24 hours
[1] = test system: Pseudomonas aeruginosa (6160)
Protocol: (§1) MIC testing is conducted using the broth (Mueller Hinton Broth) microdilution procedures relevant to each organism group as established by the Clinical and Laboratory Standards Institute (CLSI; 3-7). MIC plates are prepared in accordance with CLSI (3-7). To prepare the test plates, automated liquid handlers are used to conduct serial dilutions and liquid transfers. Automated liquid handlers utilized in this study include the Multidrop 384 (Labsystems, Helsinki, Finland) and the Biomek 2000 (Beckman Coulter, Fullerton CA). The solution is diluted to desired pH using 1 M Citric Acid or 1 M NaOH buffer. A standardized inoculum of each test organism is prepared per CLSI methods (3, 5-7) to equal a 0.5 McFarland standard in the appropriate media followed by an additional 1:20 dilution (1:10 for anaerobes).
(§2) The plates are then inoculated with 10 μL of the diluted 0.5 McFarland suspension using the Biomek 2000 from low to high drug concentration, resulting in a final concentration of approximately 5×10^5 CFU/mL per well. An un-inoculated plate is incubated for the purpose of assessing solubility of the drug in the test media. The plates are stacked 3 to 4 high, covered with a sterile lid on the top plate, and incubated for 18 to 24 hours according to CLSI. The MIC is recorded as the lowest concentration of respective compound that inhibited visible growth of the organism.

Escherichia coli (6260) = test system: Escherichia coli (6260)
Protocol: as §1, §2

Escherichia coli (6098) = test system: Escherichia coli (6098)
Protocol: as §1, §2

[2] = test system: Pseudomonas aeruginosa (0103)
Protocol: as §1, §2

[3] = test system: Pseudomonas aeruginosa (6234)
Protocol: as §1, §2

Escherichia coli (0102) = test system: Escherichia coli (0102)
Protocol: as §1, §2

Cc1cn([C@H]2C[C@H](O)[C@@H](COP(=O)(O)OCCCCO)O2)c(=O)[nH]c1=O [R-9]
MIC [1]: 100 mg/mL (≈ 254 mM) | MIC (Escherichia coli (6260)): 100 mg/mL (≈ 254 mM) | MIC (Escherichia coli (6098)): 100 mg/mL (≈ 254 mM) | MIC [2]: 100 mg/mL (≈ 254 mM) | MIC [3]: 50 mg/mL (≈ 127 mM) | MIC (Escherichia coli (0102)): 100 mg/mL (≈ 254 mM)
